Tests used:
[1] = test system: HCT-8/5-FU (5-FU-resistant strain of HCT-8); experiment: MTT cytotoxicity assay on HCT-8/5-FU cells; type: cell-based, human; details: Homo sapiens, MTT, 48 h treatment
Experimental: (§1) HCT-8, fluorouracil-resistant HCT-8, fluorouracil-resistant LoVo cell lines were cultured in RPMI Medium 1640 medium containing 10% FBS and 1% penicillin/streptomycin. LoVo cell line was cultured in F-12K medium containing 10% FBS and 1% penicillin/streptomycin. All cell lines above were cultured at humidified atmosphere containing 5% CO2 at 37° C.
(§2) In the cytotoxicity assay, exponentially growing cells of each cancer cell line were plated in 96-well microplate at a density of 5000 cells per well in 100 μL of culture medium and allowed to adhere for 24 h before treatment. Serial concentrations of RNA molecules obtained in Example 1 to 4 in a mixture containing a gene delivery carrier, i.e. Lipofectamine™ RNAiMAX Transfection Reagent (Thermo Fisher Scientific, U.S.A.) were then added to the cells. After treated for 48 h, MTT solution (50 μL per well, 1 mg/mL solution) was added to each well and incubated for 4 h at 37° C. Subsequently, 200 μL dimethyl sulfoxide (DMSO) were added and the optical densities of the resulting solutions were calorimetrically determined at 570 nm using a SpectraMax 190 microplate reader (Molecular Devices, Sunnyvale, CA, U.S.A). Dose-response curves were obtained, and the IC50 values were calculated by GraphPad Prism 5 (GraphPad, La Jolla, CA, USA). Each experiment was carried out for three times. IC50 results were expressed as means±standard deviation.

[2] = test system: HCT-8 human ileocecal colorectal adenocarcinoma cell line; experiment: MTT cytotoxicity assay on HCT-8 cells; type: cell-based; details: for cell viability of HCT-8 cells (FIG. 6A): 50 nM, 48 h, vs control and RNAiMAX group
Experimental: as §1, §2

[3] = test system: LoVo colorectal adenocarcinoma cell line; experiment: MTT cytotoxicity assay on LoVo cells; type: cell-based; details: Homo sapiens, MTT, 48 h treatment
Experimental: as §1, §2

[4] = test system: LoVo/5-FU (5-FU-resistant strain of LoVo); experiment: MTT cytotoxicity assay on LoVo/5-FU cells; type: cell-based; details: Homo sapiens, MTT, 48 h treatment
Experimental: as §1, §2

Row | Molecule | cell viability of HCT-8 cells (FIG. 6A) [2] | further results
1 | O=c1[nH]cc(F)c(=O)[nH]1 [5-FU, fluorouracil, reference compound] |  | IC50 [1]: 171 µM; IC50 ([2]; Homo sapiens, HCT-8, MTT, 48 h treatment): 41.4 µM; IC50 [3]: 63.9 µM; IC50 [4]: 133 µM
2 | EC41 mimic: 22 bp dsRNA; antisense SEQ ID NO: 47 GGGUGAUUAGCUCAGCUGGGAG, sense SEQ ID NO: 141 CUCCCAGCUGAGCUAAUCACCC; 5′-t of tRNA-Val(UAC) (listed as RNA, chemistry not given here) [22 bp dsRNA; 5′-t of tRNA-Val(UAC)] | effective to colorectal cancer cells | 
3 | EC42 mimic: 22 bp dsRNA; antisense SEQ ID NO: 48 UCGAUCCCGUCAUCACCCACCA, sense SEQ ID NO: 142 UGGUGGGUGAUGACGGGAUCGA; 3′-t of tRNA-Val(UAC) (listed as RNA, chemistry not given here) [22 bp dsRNA; 3′-t of tRNA-Val(UAC)] | effective to colorectal cancer cells | 
4 | EC85 mimic: 22 bp dsRNA; antisense SEQ ID NO: 91 GCGAAGGUGGCGGAAUUGGUAG, sense SEQ ID NO: 185 CUACCAAUUCCGCCACCUUCGC; 5′-t of tRNA-Leu(CAG) (listed as RNA, chemistry not given here) [22 bp dsRNA; 5′-t of tRNA-Leu(CAG)] | effective to colorectal cancer cells | 
5 | EC86 mimic: 22 bp dsRNA; antisense SEQ ID NO: 92 UCAAGUCCCCCCCCUCGCACCA, sense SEQ ID NO: 186 UGGUGCGAGGGGGGGGACUUGA; 3′-t of tRNA-Leu(CAG) (listed as RNA, chemistry not given here) [22 bp dsRNA; 3′-t of tRNA-Leu(CAG)] | effective to colorectal cancer cells | 
6 | tRNA-Val(UAC): tRNA purified from Escherichia coli MRE600 total tRNA, SEQ ID NO: 237 (nucleic acid, listed as Escherichia coli, expressed or natural sequence) GGGUGAUUAGCUCAGCDGGGAGAGCACCUCCCUUACAAGGAGGGGGUCGGCGGUNCGAUCCCGUCAUCACCCACCA | effective to colorectal cancer cells | 
7 | tRNA-Leu(CAG): tRNA purified from Escherichia coli MRE600 total tRNA, SEQ ID NO: 218 (nucleic acid, listed as Escherichia coli, expressed or natural sequence) GCGAAGGUGGCGGAANNGGNAGACGCGCUAGCUUCAGGNGNUAGUGUCCUUACGGACGUGGGGGUNCAAGUCCCCCCCCUCGCACCA | effective to colorectal cancer cells | 

From patent US11866704B2, “Nucleic acid molecules and uses thereof” (Macau University of Science and Technology, priority 2020, dated 2024)
